The text below walks through data of patent US11059848B2, “Artemisinic acid glycoconjugate compounds, process for preparation and use thereof” (Council of Scientific and Industrial Research, priority 2018, dated 2021).

Broadly, the IC50 is the concentration at which inhibition is half-maximal. As a reminder, the melting point is the temperature of the solid-liquid transition.

The test system of data set [1] is MCF7 (breast cancer cell line). Put plainly: Growth inhibition by MTT cytotoxicity assay, in vitro anticancer activity. Type of data set: cell-based. The procedure:
Compounds were dissolved in DMSO (Sigma) to prepare 50 mM concentrations stock solutions. All the further dilutions were also made in DMSO. During the treatment, the final concentration of DMSO was maintained <[…].
Breast cancer cell line MCF7, maintained at NCCS, a national resource for providing cell lines, was grown in DMEM (GIBCO), MBA-MB-231 in RPMI (GIBCO) with 10% FBS, 100 U/mL penicillin and 100 μg/mL streptomycin and MCF10A in DMEM/F12 (Gibco) containing, horse Serum (10% final), EGF (20 ng/ml), Hydrocortisone ([…]), Cholera Toxin (100 ng/ml), Insulin (10 μg/ml) and Penicillin/Streptomycin mix (1 ml/100 ml) at 37° C. in a humid, 5% CO2 regulated incubator.
The cytotoxic effect of the compounds was determined using MTT (3-(4, 5 dimethylthiazol-2-yl)-2-5 diphenyltetrazolium bromide) assay. Cells were seeded (4×10^3 per well) in 96 well plates. After 24 hours of seeding, cells were exposed with varying concentrations ([…]) of respective compounds for 48 hours in triplicates. Then, MTT solution (20 μL of 5 mg/mL stock for each well of 96 well plate) was added and further incubated for 3.5 hours in humid 5% CO2 incubator. Media containing MTT solution was then replaced by MTT solvent (iso-propanol, HCl and Triton X-100), incubated for 15 min at room temperature with gentle shaking for complete dissolution of Formazan. Absorbance was measured at 570 nm using a Thermo Scientific Multiskan GO Elisa plate reader and IC 50 was calculated by routine methods. All experiments were carried out at least in triplicate, and the percentage of viable cells was calculated as the mean with respect to the controls.
(In general: Tetrazolium assays rely on reduction of a dye to a coloured formazan, in cell work by metabolically active cells.)

Setting [2] is: Homo sapiens, MCF7 breast cancer cell line, MTT, 48 hours exposure, Table 1, read-out: IC50.
Where [3] appears, read: MCF7 breast cancer cell line, MTT, 48 hours exposure, table of Example 4, read-out: IC50.

Read-outs that look alike come from different tables or passages of the source. A value given as a limit tells only on which side of the number the result lay.

For the compound `C=C(C(=O)OCc1cn([C@@H]2O[C@H](COC(C)=O)[C@H](OC(C)=O)[C@H](OC(C)=O)[C@H]2OC(C)=O)nn1)[C@@H]1CC[C@@H](C)[C@@H]2CCC(C)=C[C@@H]21` [KTK-AA-2, (2R,3S,4S,5R,6R)-2-(acetoxymethyl)-6-(4-(((2-((1R,4R,4aS,8aR)-4,7-dimethyl-1,2,3,4,4a,5,6,8a-octahydronaphthalen-1-yl)acryloyl)oxy)methyl)-1H-1,2,3-triazol-1-yl)tetrahydro-2H-pyran-3,4,5-triyl triacetate], the IC50 in data set [1] (setting [2]) and in data set [1] (setting [3]) was above 100 µM each time.
Consider `C=C(C(=O)OCc1cn([C@@H]2O[C@H](COC(C)=O)[C@@H](OC(C)=O)[C@H](OC(C)=O)[C@H]2OC(C)=O)nn1)[C@@H]1CC[C@@H](C)[C@@H]2CCC(C)=C[C@@H]21` [KTK-AA-4, (2R,3R,4S,5R,6R)-2-(acetoxymethyl)-6-(4-(((2-((1R,4R,4aS,8aR)-4,7-dimethyl-1,2,3,4,4a,5,6,8a-octahydronaphthalen-1-yl)acryloyl)oxy)methyl)-1H-1,2,3-triazol-1-yl)tetrahydro-2H-pyran-3,4,5-triyl triacetate], for which the IC50 in data set [1] (setting [2]) and in data set [1] (setting [3]) was above 100 µM each time.
With `C=C(C(=O)OCc1cn([C@@H]2O[C@H](COC(=O)c3ccccc3)[C@H](OC(=O)c3ccccc3)[C@H](OC(=O)c3ccccc3)[C@H]2OC(=O)c2ccccc2)nn1)[C@@H]1CC[C@@H](C)[C@@H]2CCC(C)=C[C@@H]21` [KTK-AA-6, (2R,3S,4S,5R,6R)-2-((benzoyloxy)methyl)-6-(4-(((2-((1R,4R,4aS,8aR)-4,7-dimethyl-1,2,3,4,4a,5,6,8a-octahydronaphthalen-1-yl)acryloyl)oxy)methyl)-1H-1,2,3-triazol-1-yl)tetrahydro-2H-pyran-3,4,5-triyl tribenzoate], the IC50 in data set [1] (setting [2]) and in data set [1] (setting [3]) was above 100 µM in each case.
`C=C(C(=O)OCc1cn([C@@H]2O[C@@H](C)[C@H](OC(C)=O)[C@@H](OC(C)=O)[C@H]2OC(C)=O)nn1)[C@@H]1CC[C@@H](C)[C@@H]2CCC(C)=C[C@@H]21` [KTK-AA-7, (2R,3R,4R,5S,6S)-2-(4-(((2-((1R,4R,4aS,8aR)-4,7-Dimethyl-1,2,3,4,4a,5,6,8a-octahydronaphthalen-1-yl)acryloyl)oxy)methyl)-1H-1,2,3-triazol-1-yl)-6-methyltetrahydro-2H-pyran-3,4,5-triyl triacetate] displayed a melting point of 89 to 92 °C. Further, the IC50 in data set [1] (Homo sapiens, MCF7, MCF-7 breast cancer cell line, read-out: IC50 value, anticancer activity against MCF-7) was determined as 42 µM. The concentration for half-maximal inhibition (IC50) in data set [1] (setting [2]) was found to be 42 ± 2 µM. The “IC50 value less when compared with artimisinic acid” value in data set [1] (MCF7, reduction of IC50 relative to artimisinic acid) is given as “more than 50%”.
For the compound `C=C(C(=O)O)[C@@H]1CC[C@@H](C)[C@@H]2CCC(C)=C[C@@H]21` [KTK-AA- Artimisinic acid, Artemisinic acid], the half-maximal inhibitory concentration (IC50) in data set [1] (setting [2]) and in data set [1] (setting [3]) was above 100 µM throughout.
Turning to `C=C(C(=O)NCc1cn([C@@H]2O[C@H](COC(C)=O)[C@@H](OC(C)=O)[C@H](OC(C)=O)[C@H]2OC(C)=O)nn1)[C@@H]1CC[C@@H](C)[C@@H]2CCC(C)=C[C@@H]21` [KTK-PA-2, (2R,3R,4S,5R,6R)-2-(acetoxymethyl)-6-(4-((2-((1R,4R,4aS,8aR)-4,7-dimethyl-1,2,3,4,4a,5,6,8a-octahydronaphthalen-1-yl)acrylamido)methyl)-1H-1,2,3-triazol-1-yl)tetrahydro-2H-pyran-3,4,5-triyl triacetate], the IC50 in data set [1] (setting [2]) and in data set [1] (setting [3]) was above 100 µM in each case.
Turning to `C=C(C(=O)NCc1cn([C@@H]2O[C@H](COC(C)=O)[C@H](OC(C)=O)[C@H](OC(C)=O)[C@H]2OC(C)=O)nn1)[C@@H]1CC[C@@H](C)[C@@H]2CCC(C)=C[C@@H]21` [KTK-PA-3, (2R,3S,4S,5R,6R)-2-(acetoxymethyl)-6-(4-((2-((1R,4R,4aS,8aR)-4,7-dimethyl-1,2,3,4,4a,5,6,8a-octahydronaphthalen-1-yl)acrylamido)methyl)-1H-1,2,3-triazol-1-yl)tetrahydro-2H-pyran-3,4,5-triyl triacetate], the IC50 in data set [1] (setting [2]) and in data set [1] (setting [3]) was above 100 µM throughout.
As to `C=C(C(=O)NCc1cn([C@@H]2O[C@H](COC(=O)c3ccccc3)[C@@H](OC(=O)c3ccccc3)[C@H](OC(=O)c3ccccc3)[C@H]2OC(=O)c2ccccc2)nn1)[C@@H]1CC[C@@H](C)[C@@H]2CCC(C)=C[C@@H]21` [KTK-PA-4, (2R,3R,4S,5R,6R)-2-((benzoyloxy)methyl)-6-(4-((2-((1R,4R,4aS,8aR)-4,7-dimethyl-1,2,3,4,4a,5,6,8a-octahydronaphthalen-1-yl)acrylamido)methyl)-1H-1,2,3-triazol-1-yl)tetrahydro-2H-pyran-3,4,5-triyl tribenzoate], the IC50 in data set [1] (setting [2]) and in data set [1] (setting [3]) was above 100 µM in each case.
